Laboratory results from US8299048B2, “Hexahydrocyclopentyl[f]indazole sulfonamides and derivatives thereof as selective glucocorticoid receptor modulators” (Merck Sharp & Dohme Corp., priority 2008, dated 2012).

Tests used:
human GR [1] = target: T1, human GR (Homo sapiens, UniProt P04150); experiment: Trans-Activation Modulation of Glucocorticoid Receptor (GRAMMER), MMTV-LUC reporter, agonist mode; assay type: cell-based; design: endogenous in cells; conditions: for Emax: A549, A549 cells, maximum activity, read-out: Transactivation A549 Cells GRAMMER Emax; for EC50: A549 cells, inflection point, read-out: Transactivation A549 Cells GRAMMER IP
T1 sequence (P04150 1-777): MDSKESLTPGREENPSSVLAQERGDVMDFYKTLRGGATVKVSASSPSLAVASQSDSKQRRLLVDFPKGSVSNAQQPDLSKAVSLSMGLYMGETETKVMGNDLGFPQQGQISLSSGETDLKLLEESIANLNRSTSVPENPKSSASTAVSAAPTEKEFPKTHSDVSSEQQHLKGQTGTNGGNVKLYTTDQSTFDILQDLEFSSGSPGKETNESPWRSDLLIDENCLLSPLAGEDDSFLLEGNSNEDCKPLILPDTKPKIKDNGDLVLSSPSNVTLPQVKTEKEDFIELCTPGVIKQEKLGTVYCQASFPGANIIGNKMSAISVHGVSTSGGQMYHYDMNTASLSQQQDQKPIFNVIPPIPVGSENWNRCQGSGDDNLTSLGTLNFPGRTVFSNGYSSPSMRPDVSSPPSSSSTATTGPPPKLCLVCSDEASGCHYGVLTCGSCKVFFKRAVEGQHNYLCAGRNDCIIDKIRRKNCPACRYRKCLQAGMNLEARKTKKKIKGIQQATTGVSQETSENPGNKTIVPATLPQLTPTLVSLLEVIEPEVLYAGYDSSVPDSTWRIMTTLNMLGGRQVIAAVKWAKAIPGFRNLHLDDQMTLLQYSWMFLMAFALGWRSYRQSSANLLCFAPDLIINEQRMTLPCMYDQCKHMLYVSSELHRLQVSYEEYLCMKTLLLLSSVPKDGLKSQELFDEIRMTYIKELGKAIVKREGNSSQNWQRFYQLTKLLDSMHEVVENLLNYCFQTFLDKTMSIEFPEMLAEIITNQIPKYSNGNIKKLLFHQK
Outline: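 Readout is luciferase from a modified MMTV LTR promoter after 24 h compound exposure alongside 10 nM dexamethasone (100% activity reference), DMSO ≤1%.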

human GR [2] = target: T1, human GR; experiment: Transrepression Assay (GITAR), TNFα-β-lactamase reporter in U937 cells; assay type: cell-based; design: U937 cells contain an endogenous glucocorticoid receptor (GR); endogenous in cells; host or cells: U937 cells stably transfected with the TNF-alpha promoter/beta-lactamase reporter; conditions: for GITAR > GRAMM % SEP: GITAR Emax minus GRAMMER Emax; for EC50: U937 cells, inflection point, read-out: Transrepression U937 Cells GITAR IP
Outline: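 Repression normalised to 100 nM dexamethasone (100%), measured with CCF2-AM β-lactamase substrate after 70–90 min at room temperature. Stably transfected U937 cells were exposed to compound 30–45 min, then to PMA (5 ng/ml final) plus LPS (100 ng/ml final) overnight (~18 hr), 37° C.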

[3] = U-937, U937 cells, maximum activity, read-out: Transrepression U937 Cells GITAR Emax
[4] = U-937, activity repressed by 100 nM dexamethasone alone set as 100%, read-out: maximal activity in the transrepression (GITAR) assay

C[C@]12Cc3cnn(-c4ccc(F)cc4)c3C=C1CC[C@@H]2CN(CCO)S(=O)(=O)Cc1ccccc1 [Example 75, N-{[(4αR,5S)-1-(4-fluorophenyl)-4α-methyl-1,4,4α,5,6,7-hexahydrocyclopenta[f]indazol-5-yl]methyl}-N-(2-hydroxyethyl)-1-phenylmethanesulfonamide]
Emax (human GR [1]): 14.4% | EC50 (human GR [1]): 450 nM | GITAR > GRAMM % SEP (human GR [2]): 14.4% | EC50 (human GR [2]): 473 nM | Emax (human GR [2]; [3]): 28.8% | Emax (human GR [2]; [4]): > 5%

CNC(=O)Nc1ccc(S(=O)(=O)N(CCO)C[C@H]2CCC3=Cc4c(cnn4-c4ccc(F)cc4)C[C@@]32C)c(Cl)c1 [Example 76, 2-chloro-N-{[(4αR,5S)-1-(4-fluorophenyl)-4α-methyl-1,4,4α,5,6,7-hexahydrocyclopenta[f]indazol-5-yl]methyl}-N-(2-hydroxyethyl)-4-{[(methylamino)carbonyl]amino}-benzenesulfonamide]
Emax (human GR [1]): 3.5% | EC50 (human GR [1]): 1960 nM | GITAR > GRAMM % SEP (human GR [2]): 9.5% | EC50 (human GR [2]): 2110 nM | Emax (human GR [2]; [3]): 13% | Emax (human GR [2]; [4]): > 5%

Cc1ccccc1S(=O)(=O)N(CCO)C[C@H]1CCC2=Cc3c(cnn3-c3ccc(F)cc3)C[C@@]21C [Example 77, N-{[(4αR,5S)-1-(4-fluorophenyl)-4α-methyl-1,4,4α,5,6,7-hexahydrocyclopenta[f]indazol-5-yl]methyl}-N-(2-hydroxyethyl)-2-methylbenzenesulfonamide]
Emax (human GR [1]): 17.9% | EC50 (human GR [1]): 901 nM | GITAR > GRAMM % SEP (human GR [2]): 25.7% | EC50 (human GR [2]): 1130 nM | Emax (human GR [2]; [3]): 43.6% | Emax (human GR [2]; [4]): > 5%

C[C@]12Cc3cnn(-c4ccc(F)cc4)c3C=C1CC[C@@H]2CN(CCO)S(=O)(=O)c1ccccc1C#N [Example 78, 2-cyano-N-{[(4αR,5S)-1-(4-fluorophenyl)-4α-methyl-1,4,4α,5,6,7-hexahydrocyclopenta[f]indazol-5-yl]methyl}-N-(2-hydroxyethyl)benzenesulfonamide]
Emax (human GR [1]): 50.6% | EC50 (human GR [1]): 652 nM | GITAR > GRAMM % SEP (human GR [2]): 15.9% | EC50 (human GR [2]): 883 nM | Emax (human GR [2]; [3]): 66.5% | Emax (human GR [2]; [4]): > 5%

C[C@]12Cc3cnn(-c4ccc(F)cc4)c3C=C1CC[C@@H]2CN(CCO)S(=O)(=O)c1ccc(Oc2ccccc2)cc1 [Example 79, N-{[(4αR,5S)-1-(4-fluorophenyl)-4α-methyl-1,4,4α,5,6,7-hexahydrocyclopenta[f]indazol-5-yl]methyl}-N-(2-hydroxyethyl)-4-phenoxybenzenesulfonamide]
Emax (human GR [1]): 7.5% | EC50 (human GR [1]): 1320 nM | GITAR > GRAMM % SEP (human GR [2]): 64.3% | EC50 (human GR [2]): 1950 nM | Emax (human GR [2]; [3]): 71.8% | Emax (human GR [2]; [4]): > 5%

C[C@]12Cc3cnn(-c4ccc(F)cc4)c3C=C1CC[C@@H]2CN(CCO)S(=O)(=O)c1cc(C(F)(F)F)ccc1Cl [Example 80, 2-chloro-N-{[(4αR,5S)-1-(4-fluorophenyl)-4α-methyl-1,4,4α,5,6,7-hexahydrocyclopenta[f]indazol-5-yl]methyl}-N-(2-hydroxyethyl)-5-(trifluoromethyl)benzenesulfonamide]
Emax (human GR [1]): 6% | EC50 (human GR [1]): 1140 nM | GITAR > GRAMM % SEP (human GR [2]): 64.0% | EC50 (human GR [2]): 2580 nM | Emax (human GR [2]; [3]): 70% | Emax (human GR [2]; [4]): > 5%

C[C@]12Cc3cnn(-c4ccc(F)cc4)c3C=C1CC[C@@H]2CN(CCO)S(=O)(=O)c1ccccc1Cl [Example 81, 2-chloro-N-{[(4αR,5S)-1-(4-fluorophenyl)-4α-methyl-1,4,4α,5,6,7-hexahydrocyclopenta[f]indazol-5-yl]methyl}-N-(2-hydroxyethyl)benzenesulfonamide]
Emax (human GR [1]): 17.2% | EC50 (human GR [1]): 461 nM | GITAR > GRAMM % SEP (human GR [2]): 59.5% | EC50 (human GR [2]): 959 nM | Emax (human GR [2]; [3]): 76.7% | Emax (human GR [2]; [4]): > 5%

C[C@]12Cc3cnn(-c4ccc(F)cc4)c3C=C1CC[C@@H]2CN(CCO)S(=O)(=O)c1ccc(F)cc1F [Example 82, 2,4-difluoro-N-{[(4αR,5S)-1-(4-fluorophenyl)-4α-methyl-1,4,4α,5,6,7-hexahydrocyclopenta[f]indazol-5-yl]methyl}-N-(2-hydroxyethyl)benzenesulfonamide]
Emax (human GR [1]): 61.1% | EC50 (human GR [1]): 287 nM | GITAR > GRAMM % SEP (human GR [2]): 29.1% | EC50 (human GR [2]): 220 nM | Emax (human GR [2]; [3]): 90.2% | Emax (human GR [2]; [4]): > 5%

Cc1nn(C)c(Cl)c1S(=O)(=O)N(CCO)C[C@H]1CCC2=Cc3c(cnn3-c3ccc(F)cc3)C[C@@]21C [Example 83, 5-chloro-N-{[(4αR,5S)-1-(4-fluorophenyl)-4α-methyl-1,4,4α,5,6,7-hexahydrocyclopenta[f]indazol-5-yl]methyl}-N-(2-hydroxyethyl)-1,3-dimethyl-1H-pyrazole-4-sulfonamide]
Emax (human GR [1]): 6.9% | EC50 (human GR [1]): 568 nM | GITAR > GRAMM % SEP (human GR [2]): 52.6% | EC50 (human GR [2]): 1320 nM | Emax (human GR [2]; [3]): 59.5% | Emax (human GR [2]; [4]): > 5%

C[C@]12Cc3cnn(-c4ccc(F)cc4)c3C=C1CC[C@@H]2CN(CCO)S(=O)(=O)c1ccccc1-c1ccccc1 [Example 84, N-{[(4αR,5S)-1-(4-fluorophenyl)-4α-methyl-1,4,4α,5,6,7-hexahydrocyclopenta[f]indazol-5-yl]methyl}-N-(2-hydroxyethyl)biphenyl-2-sulfonamide]
Emax (human GR [1]): 19.7% | EC50 (human GR [1]): 442 nM | GITAR > GRAMM % SEP (human GR [2]): 66.3% | EC50 (human GR [2]): 799 nM | Emax (human GR [2]; [3]): 86% | Emax (human GR [2]; [4]): > 5%

CC(=O)Nc1ccc(S(=O)(=O)N(CCO)C[C@H]2CCC3=Cc4c(cnn4-c4ccc(F)cc4)C[C@@]32C)cc1 [Example 85, N-(4-{[{[(4αR,5S)-1-(4-fluorophenyl)-4α-methyl-1,4,4α,5,6,7-hexahydrocyclopenta[f]indazol-5-yl]methyl}(2-hydroxyethyl)amino]sulfonyl}phenyl)acetamide]
Emax (human GR [1]): 1.6% | EC50 (human GR [1]): 73.7 nM | GITAR > GRAMM % SEP (human GR [2]): 37.1% | EC50 (human GR [2]): 4230 nM | Emax (human GR [2]; [3]): 38.8% | Emax (human GR [2]; [4]): > 5%

C[C@]12Cc3cnn(-c4ccc(F)cc4)c3C=C1CC[C@@H]2CN(CCc1ccccc1F)S(=O)(=O)c1ccccc1F [Example 86, 2-fluoro-N-[2-(2-fluorophenyl)ethyl]-N-{[(4αR,5S)-1-(4-fluorophenyl)-4α-methyl-1,4,4α,5,6,7-hexahydrocyclopenta[f]indazol-5-yl]methyl}benzenesulfonamide]
Emax (human GR [1]): 68.2% | EC50 (human GR [1]): 68.6 nM | GITAR > GRAMM % SEP (human GR [2]): 12.4% | EC50 (human GR [2]): 262 nM | Emax (human GR [2]; [3]): 80.6% | Emax (human GR [2]; [4]): > 5%

CCCS(=O)(=O)N(CCc1ccccc1F)C[C@H]1CCC2=Cc3c(cnn3-c3ccc(F)cc3)C[C@@]21C [Example 87, N-[2-(2-fluorophenyl)ethyl]-N-{[(4αR,5S)-1-(4-fluorophenyl)-4α-methyl-1,4,4α,5,6,7-hexahydrocyclopenta[f]indazol-5-yl]methyl}propane-1-sulfonamide]
Emax (human GR [1]): 65.1% | EC50 (human GR [1]): 231 nM | GITAR > GRAMM % SEP (human GR [2]): 20.0% | EC50 (human GR [2]): 212 nM | Emax (human GR [2]; [3]): 85.1% | Emax (human GR [2]; [4]): > 5%

C[C@]12Cc3cnn(-c4ccc(F)cc4)c3C=C1CC[C@@H]2CN(CCc1ccccc1F)S(=O)(=O)Cc1cccc(C(F)(F)F)c1 [Example 88, N-[2-(2-fluorophenyl)ethyl]-N-{[(4αR,5S)-1-(4-fluorophenyl)-4α-methyl-1,4,4α,5,6,7-hexahydrocyclopenta[f]indazol-5-yl]methyl}-1-[3-(trifluoromethyl)phenyl]methanesulfonamide]
Emax (human GR [1]): 25.3% | EC50 (human GR [1]): 618 nM | GITAR > GRAMM % SEP (human GR [2]): 32.4% | EC50 (human GR [2]): 646 nM | Emax (human GR [2]; [3]): 57.7% | Emax (human GR [2]; [4]): > 5%

C[C@]12Cc3cnn(-c4ccc(F)cc4)c3C=C1CC[C@@H]2CN(CCc1ccccc1F)S(=O)(=O)CC(F)(F)F [Example 89, 2,2,2-trifluoro-N-[2-(2-fluorophenyl)ethyl]-N-{[(4αR,5S)-1-(4-fluorophenyl)-4α-methyl-1,4,4α,5,6,7-hexahydrocyclopenta[f]indazol-5-yl]methyl}ethanesulfonamide]
Emax (human GR [1]): 81.4% | EC50 (human GR [1]): 119 nM | GITAR > GRAMM % SEP (human GR [2]): 14.3% | EC50 (human GR [2]): 138 nM | Emax (human GR [2]; [3]): 95.6% | Emax (human GR [2]; [4]): > 5%
